Measured values taken from PMC3138742 (PLoS ONE, 2011).

Key:
[1] = test system: A549 cells; assay: Anchorage-independent growth on soft agar; format: cell-based, human; conditions: two weeks
Method: The culture was maintained at 37°C in a 5% CO2 atmosphere for two weeks. The average colony number was calculated and colonies were photographed. […] Anchorage-independent cell transformation assay. Cell transformation was detected in SK-OV-3 and A549 cells, respectively. […] The culture were maintained in a 37°C, 5% CO2 incubator for 1-2 weeks, and the cell colonies were scored using a microscope and the Image-Pro PLUS computer software program (Media Cybernetics, Silver Spring, MD).

[2] = Body weights in FVB-2/N^neu transgenic mouse study; format: in vivo; conditions: FVB-2/N^neu mice, oral twice daily for 3 wk
Description: (§1) Thirty eight- to forty four-week-old female FVB/N^neu mice were obtained from Shanghai Laboratory Animal Center. The animals were housed under specific pathogen-free conditions.

[3] = test system: SK-OV-3 cells; assay: Cell proliferation SRB assay; format: cell-based; conditions: Homo sapiens, SK-OV-3, 72 h, range given for four cell lines together, read-out: IC50 (antiproliferative)
Method: (§2) Cell proliferation was evaluated using the SRB (Sulforhodamine B) assay as previously described. Briefly, cells were seeded into 96-well plates and grown for 24 h. […] The medium remained unchanged until the completion of the experiment. The cells were then fixed with 10% precooled trichloroacetic acid (TCA) for 1 h at 4°C and stained for 15 min at room temperature with 100 μL of 4 mg/mL SRB solution (Sigma) in 1% acetic acid. The SRB was then removed, and the cells were quickly rinsed five times with 1% acetic acid. After cells were air-dried, protein-bound dye was dissolved in 150 μL of 10 mmol/L Tris base for 5 min and measured at 515 nm using a multiwell spectrophotometer (VERSAmax, Molecular Devices). […] The IC50 value was obtained by the Logit method and was determined from the results of at least 3 independent tests.

[4] = test system: NCI-H23 cells; assay: Cell proliferation SRB assay; format: cell-based; conditions: Homo sapiens, NCI-H23, 72 h, range given for four cell lines together, read-out: IC50 (antiproliferative)
Method: as §2

[5] = test system: EGFR phosphorylation in A549 cells; assay: Western blot of EGF-induced EGFR phosphorylation; format: cell-based, human; conditions: 0.01 µM, 4 h, EGF 50 ng/ml 15 min
[6] = test system: SK-OV-3 cells transfected with ErbB2 siRNA; assay: SRB assay after ErbB2 siRNA transfection; format: cell-based, human; conditions: SK-OV-3, ErbB2 siRNA 50 nmol/L, AST1306 6.25 µmol/L (p<0.05) or 12.5 µmol/L (p<0.01)
Description: Small interfering RNA (siRNA) against EGFR or ErbB2, as well as control siRNA, were designed and synthesized by Shanghai GenePharma Co. Ltd. One pair of ErbB2 siRNA (sequence: 5′ […] 3′), and two pairs of EGFR siRNA (#1 sequence: 5′ […] 3′; #2 sequence: 5′ […] 3′) were applied in this study. Different kind of siRNA (final concentration: 50 nmol/L) was transfected to SK-OV-3 cells with oligofectamine reagent (Invitrogen) according to the manufacturer's instruction.

[7] = test system: SK-OV-3 cells; assay: Anchorage-independent growth on soft agar; format: cell-based, human; conditions: two weeks
Method: The culture was maintained at 37°C in a 5% CO2 atmosphere for two weeks. The average colony number was calculated and colonies were photographed. Columns, mean of triplicate samples; bars, SE. Significant differences were evaluated using the Student's test (*P<0.05; ** P<0.01). (TIF) Click here for additional data file. Anchorage-independent cell transformation assay. Cell transformation was detected in SK-OV-3 and A549 cells, respectively. […] The culture were maintained in a 37°C, 5% CO2 incubator for 1-2 weeks, and the cell colonies were scored using a microscope and the Image-Pro PLUS computer software program (Media Cybernetics, Silver Spring, MD). Data are shown as means ± SD of values from triplicate experiments and the asterisk (*) indicates a significant (*P<0.05, ** P<0.01) decrease in colony number compared to untreated control.

[8] = test system: FVB-2/N^neu transgenic mouse model; assay: Spontaneous breast cancer in FVB-2/N^neu transgenic mouse, tumor growth; format: in vivo; conditions: FVB-2/N^neu mice
Description: as §1

[9] = test system: A549 cells; assay: Cell proliferation SRB assay; format: cell-based; conditions: Homo sapiens, A549, 72 h, range given for four cell lines together, read-out: IC50 (antiproliferative)
[10] = test system: NCI-H1975 cells; assay: Cell proliferation SRB assay; format: cell-based, human; conditions: NCI-H1975 cells (EGFR T790M/L858R)
Method: Cell viability was determined using sulforhodamine B assay. IC50 values were determined based on the results of three independent experiments. […] Whole-cell lysates were assayed for total EGFR and phosphorylation of EGFR by immunoblotting. A representative anti-GAPDH immunoblot is shown as a loading control. […] Cell viability was determined using sulforhodamine B assay.
as §2

[11] = Body weights in xenograft studies; format: in vivo; conditions: nude mice, xenograft models, p.o. twice daily
Method: The mice were housed and maintained under specific-pathogen free (SPF) conditions. All animal procedures were performed according to the protocol approved by the Institutional Animal Care and Use Committee at Shanghai Institute of Materia Medica, Chinese Academy of Sciences (SIMM-AE-DJ-2010-01). Under sterile conditions, well-developed tumors were cut into 1-mm^3 fragments and transplanted s.c. into the right flank of nude mice using a trocar. When the tumor reached a volume reached 100 to 200 mm^3, the mice were randomly assigned into control and treatment groups. […] The sizes of the tumors were measured twice per week using microcalipers. The tumor volume (V) was calculated as follows: V = (length×width^2)/2. The body weights of the mice were observed simultaneously.

[12] = Pharmacokinetics after single oral dose; conditions: dog, in vivo; dogs, single oral dose 90 mg/kg; unpublished data
[13] = molecular target: ErbB4 (Homo sapiens, UniProt Q15303); conditions: ErbB4, cell-free; means ± SD
Method: The tyrosine kinase activities were determined using enzyme-linked immunosorbant assay (ELISA). The serine/threonine kinase activities were detected by Caliper Mobility Shift Assay on EZ Reader (Caliper Life Sciences, MA) according to the instruction.
The tyrosine kinase activities were determined in 96-well ELISA plates (Corning, NY, USA) precoated with 20 μg/mL Poly (Glu,Tyr)4:1. First, 80 μL of 5 μM ATP solution diluted in kinase reaction buffer (50 mM HEPES pH 7.4, 20 mM MgCl2, 0.1 mM MnCl2, 0.2 mM Na3VO4, 1 mM DTT) was added to each well. […] Subsequently, the kinase reaction was initiated by the addition of purified tyrosine kinase proteins diluted in 10 μL of kinase reaction buffer solution. Experiments at each concentration were performed in duplicate. After incubation for 60 min at 37 °C, the plate was washed three times with phosphate buffered saline (PBS) containing 0.1% Tween 20 (T-PBS). Next, 100 μL anti-phosphotyrosine antibody (PY99, 1:500 dilution) diluted in T-PBS containing 5 mg/mL BSA was added. After 30 min incubation at 37 °C, the plate was washed three times as before. Horseradish peroxidase-conjugated goat anti-mouse IgG (100 μL) diluted 1:2000 in T-PBS containing 5 mg/ml BSA was added. The plate was reincubated at 37 °C for 30 min, and then washed with PBS.

Chain of ErbB4 (Q15303 26-1308, species assumed): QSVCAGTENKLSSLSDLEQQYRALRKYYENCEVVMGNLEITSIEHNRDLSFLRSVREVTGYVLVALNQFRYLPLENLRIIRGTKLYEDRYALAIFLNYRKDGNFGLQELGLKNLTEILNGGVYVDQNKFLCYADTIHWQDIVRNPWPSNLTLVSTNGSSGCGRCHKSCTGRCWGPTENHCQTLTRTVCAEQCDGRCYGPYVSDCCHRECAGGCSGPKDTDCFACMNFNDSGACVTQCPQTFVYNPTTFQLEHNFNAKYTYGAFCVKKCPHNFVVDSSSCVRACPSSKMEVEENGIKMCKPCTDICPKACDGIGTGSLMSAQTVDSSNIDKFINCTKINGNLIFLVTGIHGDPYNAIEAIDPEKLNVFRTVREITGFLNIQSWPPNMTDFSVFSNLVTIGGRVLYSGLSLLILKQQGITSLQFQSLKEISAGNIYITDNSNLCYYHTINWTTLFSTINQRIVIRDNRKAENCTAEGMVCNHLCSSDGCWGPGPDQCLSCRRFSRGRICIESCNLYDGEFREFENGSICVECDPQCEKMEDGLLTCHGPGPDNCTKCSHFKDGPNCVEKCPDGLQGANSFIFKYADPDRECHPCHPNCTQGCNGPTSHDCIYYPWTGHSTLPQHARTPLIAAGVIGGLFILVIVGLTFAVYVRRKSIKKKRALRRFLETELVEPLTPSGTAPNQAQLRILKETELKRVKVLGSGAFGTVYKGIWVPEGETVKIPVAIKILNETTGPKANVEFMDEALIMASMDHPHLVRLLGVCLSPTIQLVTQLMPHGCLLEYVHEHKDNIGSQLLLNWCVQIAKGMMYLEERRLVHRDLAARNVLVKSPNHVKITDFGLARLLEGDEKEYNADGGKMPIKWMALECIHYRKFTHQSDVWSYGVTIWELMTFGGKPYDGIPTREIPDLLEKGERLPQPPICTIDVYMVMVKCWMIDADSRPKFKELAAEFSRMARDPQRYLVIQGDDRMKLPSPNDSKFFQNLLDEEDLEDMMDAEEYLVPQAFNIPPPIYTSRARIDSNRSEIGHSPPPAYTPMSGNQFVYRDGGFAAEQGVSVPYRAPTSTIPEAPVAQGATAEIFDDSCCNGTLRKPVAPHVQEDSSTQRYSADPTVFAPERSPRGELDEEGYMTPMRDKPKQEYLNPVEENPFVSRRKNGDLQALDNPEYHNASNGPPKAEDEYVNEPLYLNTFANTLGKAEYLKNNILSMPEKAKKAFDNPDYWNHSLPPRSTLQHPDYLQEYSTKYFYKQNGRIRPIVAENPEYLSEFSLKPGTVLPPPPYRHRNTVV

C=CC(=O)Nc1ccc2ncnc(Nc3ccc(OCc4cccc(F)c4)c(Cl)c3)c2c1 [AST1306]
anchorage-independent growth on soft agar [1]: dramatically inhibit the growth | decrease of body weights during treatment [2]: less than 20% | IC50 [3]: 6.2 to 7.5 µM | IC50 [4]: 6.2 to 7.5 µM | EGF-induced EGFR phosphorylation (phospho-EGFR bands) [5]: almost disappeared | sensitivity to antiproliferative effect after ErbB2 knockdown [6]: significantly more resistant | anchorage-independent growth on soft agar [7]: dramatically inhibit the growth | tumor growth ([8]; oral twice daily for 3 wk): dramatic suppression of tumor growth | tumors after treatment for 11 d ([8]; oral twice daily, 11 d): tumors almost completely disappeared | IC50 [9]: 6.2 to 7.5 µM | inhibition of cell growth [10]: inhibited the growth | body weights during treatment [11]: no obvious differences | half-life [12]: < 2.3 h | IC50 [13]: 0.0008 ± 0.0003 µM
